Measurements from ChEMBL document CHEMBL2157966, “Elevation of cellular O-GlcNAcylation level by a potent and selective O-GlcNAcase inhibitor based on tetrahydroimidazopyridine scaffold” (Bioorg Med Chem Lett, 2012).
The source made the active and inactive calls. The calls are words filed in the database; no cut-off is given here.

Columns and labels:
[1] = target: T1, Protein O-GlcNAcase (Homo sapiens) (UniProt O60502); assay: Inhibition of human OGA at 100 uM
T1 sequence (whole entry): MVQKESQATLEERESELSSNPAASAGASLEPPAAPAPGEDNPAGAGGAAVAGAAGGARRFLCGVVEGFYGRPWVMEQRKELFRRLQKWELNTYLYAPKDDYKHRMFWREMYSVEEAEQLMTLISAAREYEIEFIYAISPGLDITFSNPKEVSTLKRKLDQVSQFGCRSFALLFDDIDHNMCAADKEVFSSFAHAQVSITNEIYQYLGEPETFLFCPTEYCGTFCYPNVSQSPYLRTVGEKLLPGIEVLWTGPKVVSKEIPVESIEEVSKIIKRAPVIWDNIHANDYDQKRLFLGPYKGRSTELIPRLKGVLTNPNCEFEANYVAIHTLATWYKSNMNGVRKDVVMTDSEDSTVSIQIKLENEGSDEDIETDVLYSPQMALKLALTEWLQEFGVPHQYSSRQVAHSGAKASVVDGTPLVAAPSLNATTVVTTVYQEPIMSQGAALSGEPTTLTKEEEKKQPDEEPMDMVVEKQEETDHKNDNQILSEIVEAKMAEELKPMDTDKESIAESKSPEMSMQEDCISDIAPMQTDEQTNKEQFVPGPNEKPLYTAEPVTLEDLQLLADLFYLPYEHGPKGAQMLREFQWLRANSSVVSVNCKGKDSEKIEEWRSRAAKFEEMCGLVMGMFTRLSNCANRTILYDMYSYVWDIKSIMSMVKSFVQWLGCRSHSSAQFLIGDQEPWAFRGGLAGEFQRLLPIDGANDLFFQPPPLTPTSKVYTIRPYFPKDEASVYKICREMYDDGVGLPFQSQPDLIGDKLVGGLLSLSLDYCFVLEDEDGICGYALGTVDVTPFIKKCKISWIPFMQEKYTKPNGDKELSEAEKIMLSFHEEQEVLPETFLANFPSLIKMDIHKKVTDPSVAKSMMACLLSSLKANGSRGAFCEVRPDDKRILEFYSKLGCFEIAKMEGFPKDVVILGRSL

[2] = target: T2, Protein O-GlcNAcase (Homo sapiens, UniProt O60502); assay: Competitive inhibition of human OGA using 4-MU-GlcNAc as substrate after 10 mins by Lineweaver Burk plot analysis
T2 sequence (O60502 whole entry): T1 sequence (whole entry)

[3] = target: T3, Beta-hexosaminidase subunit alpha (Homo sapiens, UniProt P06865); assay: Inhibition of human Hex A using 4-MU-GlcNAc as substrate after 10 mins by Lineweaver Burk plot analysis
T3 sequence (P06865 whole entry): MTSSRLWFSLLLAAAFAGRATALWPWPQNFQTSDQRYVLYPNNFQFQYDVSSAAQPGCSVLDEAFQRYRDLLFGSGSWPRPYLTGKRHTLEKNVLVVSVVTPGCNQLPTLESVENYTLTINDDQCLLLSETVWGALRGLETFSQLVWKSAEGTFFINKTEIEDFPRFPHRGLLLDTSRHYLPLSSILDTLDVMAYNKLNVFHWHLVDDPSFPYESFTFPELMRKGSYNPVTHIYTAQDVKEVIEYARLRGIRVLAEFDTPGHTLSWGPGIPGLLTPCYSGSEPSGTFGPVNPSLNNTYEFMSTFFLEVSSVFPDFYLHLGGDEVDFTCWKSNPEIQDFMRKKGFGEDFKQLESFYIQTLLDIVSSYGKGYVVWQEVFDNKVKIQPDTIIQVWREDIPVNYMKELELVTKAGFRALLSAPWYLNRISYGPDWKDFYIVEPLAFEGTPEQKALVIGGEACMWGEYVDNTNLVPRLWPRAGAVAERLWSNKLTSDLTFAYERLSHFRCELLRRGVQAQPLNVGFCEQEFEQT

[4] = target: T1, Protein O-GlcNAcase (Homo sapiens); assay: Inhibition of OGA in human SH-SY5Y cells assessed as increase in protein O-GlcNAcylation level after 24 hrs by Western blot analysis; assay type: cell-based
[5] = target: T1, Protein O-GlcNAcase (Homo sapiens); assay: Inhibition of OGA in human SH-SY5Y cells assessed as increase in protein O-GlcNAcylation level at 10 uM after 24 hrs by Western blot analysis; assay type: cell-based

| inhibition [1] [%] | SMILES | other results |
| --- | --- | --- |
| 15.3 | CCCCCCCCc1cn2c(n1)[C@H](O)[C@@H](O)[C@H](O)[C@H]2CO | – |
| 2.2 | CC(C)(CCc1cn2c(n1)[C@H](O)[C@@H](O)[C@H](O)[C@H]2CO)C(=O)Nc1ccccc1 | – |
| 54.1 | COc1ccc(CCc2cn3c(n2)[C@H](O)[C@@H](O)[C@H](O)[C@H]3CO)cc1 | – |
| 28.3 | Cc1ccc(CCc2cn3c(n2)[C@H](O)[C@@H](O)[C@H](O)[C@H]3CO)cc1 | – |

Second part, the compound before the results:

| SMILES | inhibition [1] [%] | other results |
| --- | --- | --- |
| O=C(CCc1cn2c(n1)[C@H](O)[C@@H](O)[C@H](O)[C@H]2CO)Nc1ccccc1 | 17.1 | – |
| OC[C@@H]1[C@@H](O)[C@H](O)[C@@H](O)c2nc(CCc3ccc(-c4ccccc4)cc3)cn21 | 84.8 | Ki [2]: 5.9 µM; Ki [3]: 163 µM; inhibition [4]: Dose-dependent effect; inhibition [5]: Active |
| CC(C)(C)CCc1cn2c(n1)[C@H](O)[C@@H](O)[C@H](O)[C@H]2CO | 0.4 | – |
| OC[C@@H]1[C@@H](O)[C@H](O)[C@@H](O)c2nccn21 | 6.2 | – |
| OC[C@@H]1[C@@H](O)[C@H](O)[C@@H](O)c2nc(CCc3ccc(F)cc3)cn21 | 26.1 | – |
| OC[C@@H]1[C@@H](O)[C@H](O)[C@@H](O)c2nc(CCc3ccccc3)cn21 | 6.8 | – |
| OC[C@@H]1[C@@H](O)[C@H](O)[C@@H](O)c2nc(CCc3ccc(C4CCCCC4)cc3)cn21 | 56.6 | – |
